Measurements: publication PMC11538636, “Electro‐Driven Multi‐Enzymatic Cascade Conversion of CO2 to Ethylene Glycol in Nano‐Reactor” (Advanced Science, 2024)

Columns and labels:
BmFADH = molecular target: T1, BmFADH (Burkholderia multivorans, UniProt A0A0H3KP42); assay: NADH consumption at […] nm; assay type: biochemical; details: 1 mM NADH, 5 mM NaMeO2, 50 mM phosphate pH 7.5, 2 h
T1 construct: gene fdhA2; recombinant in E. coli BL21(DE3), pETDuet, C-terminal His-tag; Zn2+ dependent
T1 sequence (A0A0H3KP42 1-398): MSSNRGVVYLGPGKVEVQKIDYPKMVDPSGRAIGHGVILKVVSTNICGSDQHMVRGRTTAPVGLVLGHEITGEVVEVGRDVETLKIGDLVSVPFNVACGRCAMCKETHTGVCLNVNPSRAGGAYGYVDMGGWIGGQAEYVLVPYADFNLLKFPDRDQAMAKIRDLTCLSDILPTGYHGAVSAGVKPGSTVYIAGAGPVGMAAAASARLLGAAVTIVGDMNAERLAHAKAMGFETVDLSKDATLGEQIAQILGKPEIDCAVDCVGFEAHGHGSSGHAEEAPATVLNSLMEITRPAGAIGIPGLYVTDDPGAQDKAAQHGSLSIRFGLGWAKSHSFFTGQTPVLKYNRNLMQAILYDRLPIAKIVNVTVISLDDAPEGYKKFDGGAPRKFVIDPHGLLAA

GoADH = system: T2, GoADH; assay: steady-state kinetics, Michaelis-Menten fit; assay type: biochemical, Gluconobacter oxydans; details: NADH co-substrate; free enzyme; glycolaldehyde reduction
T2 construct: gene adh; recombinant in E. coli BL21(DE3), pETDuet, C-terminal His-tag; codon-optimized gene; Zn2+ dependent

`NC(=O)C1=CN([C@@H]2O[C@H](COP(=O)(O)OP(=O)(O)OC[C@H]3O[C@@H](n4cnc5c(N)ncnc54)[C@H](O)[C@@H]3O)[C@@H](O)[C@H]2O)C=CC1` [NADH] was tested, and the “NADH consumption at 340 nm” value (BmFADH) was “activity of PaFDH, BmFADH, and GoADH was determined by measuring the consumed NADH”.

With `O=CCO` [glycolaldehyde] the Km (GoADH) was 432 µM.
